Patent publication US20040259770A1, “Method for determining leukocyte activation” (Rush University Medical Center, priority 2003, published 2004)

Columns and labels:
[1] = tested on: eosinophils; test: Eosinophil degranulation: EDN release by ELISA; format: cell-based, human; conditions: 100 picograms per milliliter GM-CSF, 3 and 10 micrograms per milliliter immobilized lactoferrin
Method: Eosinophils (2×10^5) were incubated in the presence and absence of 100 picograms per milliliter of GM-CSF in RPMI 1640 containing 1 milligram per milliliter of HSA for 4 hours at 37° C. in 5 percent CO2 in tissue culture wells precoated with lactoferrin or secretory IgA as above. Total incubation volume was 0.2 milliliters. Reactions were stopped by centrifugation at 300 g for 5 minutes at 4° C., and supernatants were stored at −20° C. until measurement of eosinophil-derived neurotoxin (EDN) content by specific ELISA (MBL International, Watertown, Mass.). Spontaneous release of EDN was determined with cells incubated in HSA-coated wells.

[2] = tested on: eosinophils; test: Eosinophil leukotriene C4 production by ELISA; format: cell-based, human
Method: Eosinophils (2×10^5) were incubated in the presence and absence of 100 pg/ml GM-CSF in RPMI 1640 containing 10 mM HEPES for 1 hr at 37° C. in tissue culture wells precoated with lactoferrin or secretory IgA as above with one modification. The tissue culture wells were not treated with HSA and HSA was not added to the incubation buffer to minimize loss of leukotriene C4. Total incubation volume was 0.2 ml. Reactions were stopped by centrifugation at 300 g for 5 min at 4° C., and supernatants were stored at −20° C. until measurement of leukotriene C4 content by a leukotriene C4/D4/E4 ELISA (Amersham Pharmacia Biotech; Piscataway, N.J.). Spontaneous leukotriene C4 production was determined with eosinophils incubated in untreated tissue culture wells.

[3] = tested on: eosinophils; test: Eosinophil superoxide production (cytochrome c reduction) in protein-coated tissue culture wells; format: cell-based, human; conditions: for inhibition of superoxide production stimulated by 30 micrograms per milliliter of immobilized lactoferrin: heparin 1000 micrograms per milliliter (highest concentration tested), 120 minutes at 37° C; for inhibition of superoxide production stimulated by immobilized lactoferrin (in words): lower concentrations of heparin, any of the concentrations of chondroitin sulfate (30 to 1000 micrograms per milliliter)
Method: Neutrophils were isolated from venous blood of healthy adult volunteers by density gradient centrifugation through lymphocyte separation medium (BioWhittaker; Walkersville, Md.) as described previously (Haskell M. D., et al., Blood 86:4627-4637 (1995)) with one modification. Isotonicity was restored following the brief hypotonic lysis steps by the addition of 2× concentrated Hank's Balanced Salt Solution (HBSS) (Gibco; Grand Island, N.Y.) (without Ca^2+ and Mg^2+) containing 5 mM HEPES, pH 7.4. The cells were suspended in HEPES (10 mM)-buffered HBSS (with Ca^2+ and Mg^2+), pH 7.4, containing 1 milligram per milliliter of human serum albumin (HSA) (Sigma Chemical Co.) (HEPES-HBSS-HSA buffer). Neutrophil purity was routinely greater than 95 percent, with eosinophils representing the remainder of the cells. Eosinophils were isolated from the neutrophil preparations by negative selection (Hansel T. T., et al., J. Immunol. Meth. 145:105-10 (1991)) using anti-CD16 immunomagnetic beads as described by the manufacturer (Miltenyi Biotec, Inc., Auburn, Calif.). The eosinophils were suspended in HEPES-HBSS-HSA buffer. Eosinophil purity was routinely greater than 95 percent as determined by counting Wright-stained cytospin preparations. In some assays, an aliquot of the neutrophil preparation was held on ice for later use.
Superoxide production was measured essentially as described elsewhere (Motegi, Y., and H. Kita, J. Immunol. 161:4340 (1998)). Briefly, wells in a 96-well (flat bottom) tissue culture plate (Corning, Inc.; Corning, N.Y.) were coated with human milk lactoferrin (Sigma Chemical Co.) or human secretory IgA (ICN Biomedical; Aurora, Ohio) by incubation with 50 microliters of the indicated concentrations of the proteins in phosphate buffered saline (PBS) overnight at 4° C. Non-specific protein binding sites were blocked by subsequent incubation with 100 microliters of 25 milligrams per milliliter of HSA in PBS for 2 hours at 37° C., and the tissue culture wells were washed twice with PBS before use. Aliquots (5×10^4 cells) of eosinophils or neutrophils were added to the wells and were incubated in HEPES-HBSS—HSA buffer containing 50 micromolar cytochrome c (Sigma Chemical Co.) for 120 minutes at 37° C. in a Ceres UV900HDi microplate reader (Bio-Tek Instruments, Inc., Winooski, Vt.). Total incubation volume was 0.2 milliliters. Absorbance at 550 nanometers was recorded at 15-minute intervals, and superoxide production was calculated as described previously (Motegi, Y., and H. Kita, J. Immunol. 161:4340 (1998)). Results are expressed as nanomoles superoxide per 10^5 cells after subtraction of spontaneous production, which was measured in tissue culture wells coated only with HSA. GM-CSF (R & D Systems; Minneapolis, Minn.), porcine heparin (Sigma Chemical Co.), or chondroitin sulfate C (Sigma Chemical Co.) was added to the incubation mixtures in some assays as indicated.

[4] = tested on: lactoferrin receptors on eosinophils; test: Binding of 125I-labeled lactoferrin by eosinophils, Scatchard analysis; parameters: species or system human; conditions: 5 micromolar transferrin, 90 nanomolar 125I-labeled lactoferrin, n=2
Method: Lactoferrin (100 micrograms) was radioiodinated using IODO-GEN iodination reagent (Pierce; Rockford, Ill.) according to the procedure supplied by the manufacturer. The lactoferrin was incubated with 400 micro Curies Na^125I (PerkinElmer Life Sciences; Boston, Mass.) for 3 min, and the ^125I-labeled lactoferrin was separated from free Na^125I by chromatography through a 5-ml D-Salt dextran desalting column (Pierce) using PBS as the elution buffer. Protein concentration of the ^125I-labeled lactoferrin was measured by the BCA assay (Pierce). Specific activity of the ^125I-labeled lactoferrin was 34,800 cpm/pmole. […] Binding of ^125I-labeled lactoferrin by eosinophils was determined using a modification of previously described protocols for eosinophils. Motegi et al. J. Immunol. […] In some experiments as indicated, binding was measured in the presence of excess unlabeled transferrin. […] The supernatant was removed by careful aspiration, and after quick-freezing on dry ice the tip of the tube containing the cell pellet was excised and the radioactivity was measured by gamma counting (Beckman Coulter Gamma 5500B). Specific binding was determined as the difference between total binding and binding in the presence of the excess unlabeled lactoferrin. Binding constants were determined by Scatchard analysis (Scatchard, G., Ann. N.Y. Acad. Sci. 51:660 (1949)).

## GM-CSF: granulocyte macrophage colony stimulating factor (R & D Systems)
[1]
  effect of GM-CSF on EDN release stimulated by immobilized lactoferrin: significantly enhanced EDN release
[2]; 100 picograms per milliliter GM-CSF alone, 1 hour
  leukotriene C4 production: 175 picograms leukotriene C4 per 10^6 eosinophils
[2]; 100 picograms per milliliter GM-CSF, 10 to 100 micrograms per milliliter immobilized lactoferrin
  effect of GM-CSF on leukotriene C4 release stimulated by immobilized lactoferrin: significantly enhanced leukotriene C4 release
[3]; 100 picograms per milliliter GM-CSF
  reduction by GM-CSF of the concentration of immobilized lactoferrin required for maximal superoxide production or EDN release: approximately three-fold
[3]; 100 picograms per milliliter GM-CSF, 10 micrograms per milliliter immobilized lactoferrin
  effect of GM-CSF on superoxide production stimulated by immobilized lactoferrin: enhanced the amount of superoxide production
[3]; 100 picograms per milliliter GM-CSF, higher concentrations of immobilized lactoferrin
  effect of GM-CSF on superoxide production stimulated by immobilized lactoferrin: did not appear to increase the level of superoxide production
[3]; GM-CSF alone (100 picograms per milliliter), 2-hour time point, five assays
  GM-CSF stimulated superoxide production: 2.8±0.7 nanomoles of superoxide per 10^5 eosinophils

## immobilized transferrin: transferrin, family member of lactoferrin, coated on tissue culture wells [reference compound]
[3]; 1 to 100 micrograms per milliliter of the protein, 2 hours at 37° C
  stimulation of eosinophil superoxide production (in words): did not stimulate superoxide production

## heparin [reference compound]
[3]; 1000 micrograms per milliliter heparin, not statistically significant (p=0.07)
  inhibition of superoxide production stimulated by 10 micrograms per milliliter immobilized secretory IgA: 28+/−11%
[3]
  inhibition of superoxide production stimulated by 30 micrograms per milliliter of immobilized lactoferrin: approximately 25%
  inhibition of superoxide production stimulated by immobilized lactoferrin (in words): neither the lower concentrations of heparin nor any of the concentrations of chondroitin sulfate inhibited the eosinophil superoxide production
[3]; listed as Heparin
  inhibition of superoxide production stimulated by 30 micrograms per milliliter of immobilized lactoferrin: 25%

## transferrin: unlabeled transferrin used in excess as competitor in the binding experiments [reference compound]
[4]
  inhibition of eosinophil binding of 125I-labeled lactoferrin: not inhibited

## chondroitin sulfate [reference compound]
[3]; 1000 micrograms per milliliter, 30 micrograms per milliliter immobilized lactoferrin
  effect on superoxide production stimulated by immobilized lactoferrin (in words): slight, but statistically significant, increase in superoxide production
[3]
  inhibition of superoxide production stimulated by immobilized lactoferrin (in words): neither the lower concentrations of heparin nor any of the concentrations of chondroitin sulfate inhibited the eosinophil superoxide production
